Results on 4 compounds are retold here after patent US20040002477A1, “Erectile dysfunction remedies containing prostaglandin derivatives as the active ingredient” (priority 2000, published 2004).

The test system of one data set is corpus cavernosum. Briefly: Corpus cavernosum relaxation activity in cats (norepinephrine-contracted isolated tissue, Magnus tube). It counts as cell-based. The conditions noted are these: cat corpus cavernosum; for Corpus cavernosum relaxation rate: 10 μM norepinephrine contraction = 100%, Means ± SE. The protocol: Under anesthesia with urethane, penis of five cats (hybrid, weight about 3.5 kg) was removed. In the krebs solution, a corpus cavernosum was isorated, quartered and suspended with the tention of 200 mg in the Magnus tube. 10 μM norepinephrine was added and the tissue was constricted. Then the stable contraction was checked. After the addition of norepinephrine, (5Z, 9β, 11α, 13E)-17,17-propano-11,16-dihydroxy-9-chloro-20-norprosta-5,13-dienic acid·lysine salt (compound A) and (5Z, 9β, 11α, 13E)-17,17-propano-11,16-dihydroxy-9-chloroprosta-5,13,19-trienic acid (compound B), which are the compounds of the formula (I), were added respectively and the changes of the contraction were measured. As controls, PGE1 and 19-hydroxy-PGE2 were used. Each compounds were disolved in DMSO and used. The contraction induced by 10 μM norepinephrine was considered as 100% and the percentages of the relaxation rate were calculated.

For another data set, the system named is human corpus cavernosum. Put plainly: Corpus cavernosum relaxation activity in human (noradrenalin-contracted isolated tissue, Magnus tube). It counts as cell-based. The conditions noted are these: for Corpus cavernosum relaxation rate: 10 μM noradrenalin contraction = 100%, added cumulatively, Means ± SE. The protocol: The samples of the human corpus cavernosum taken at the time of operative treatment in agreement of the patient were suspended with the tention of 500 mg in the Magnus tube fulled by glucose-added Krebs buffer. The 10^−5M (10 μM) noradrenalin-induced contraction reaction, acetylcholine-induced relaxation reaction and electrostimulation(EFS)-induced contraction reaction were checked and the samples responded normaly were used in the experiment. It was reconstricted by 10 μM noradrenalin, the compound A used in the present invention of the formula (I) (n=4), the compound B used in the present invention of the formula (I) (n=5) or PGE1 (n=5), which were disolved by DMSO, were added cumulatively and the relaxation reacton was recorded on the chart. The contraction induced by 10 μM noradrenaline was concidered as 100% and the percentage of the relaxation rate was calculated.

The conditions of data set [1]: rat, in vivo, iv. The method, then:
It has been confirmed that the compounds used in the present invention of the formula (I) have sufficiently low toxicity and are sufficiently safe for use as pharmaceutical preparations. For example, the maximal tolerated dose of the compound A (lysine salts) in the compound of the formula (I) was 30 mg/kg weight or more for rat intravenous administration.

In the case of `CCCCC[C@H](O)/C=C/[C@H]1[C@H](O)CC(=O)[C@@H]1CCCCCCC(=O)O` [PGE1, prostaglandin E1, reference compound], the “Corpus cavernosum relaxation rate” value in the data set on corpus cavernosum (dose 0.1 μM) came to 21.3 ± 2.3%; in the data set with corpus cavernosum (dose 1.0 μM), 35.5 ± 5.0%; in the data set on human corpus cavernosum (dose 1.0 μM) it was 16.8 ± 7.2%; with human corpus cavernosum (dose 10 μM) it was 27.9 ± 8.8%.
Turning to `C=CCC1(C(O)C/C=C/[C@@H]2[C@@H](C/C=C\CCCC(=O)O)[C@H](Cl)C[C@H]2O)CCC1` (stereo partly drawn) [Compound B, (5Z, 9β, 11α, 13E)-17,17-propano-11,16-dihydroxy-9-chloroprosta-5,13,19-trienic acid], the “Intensity of relaxation compared with PGE1” value with corpus cavernosum was “at the same level as PGE1”. In addition, in the data set on corpus cavernosum, the “Relaxation of corpus cavernosum, dose dependence” value is “dose-dependent relaxasions”. Also, the “Corpus cavernosum relaxation rate” value in the data set on corpus cavernosum (dose 0.1 μM) came out at 18.1 ± 4.8%; in the data set with corpus cavernosum (dose 1.0 μM) it was 36.8 ± 4.2%; in the data set with human corpus cavernosum (dose 1.0 μM) it was 25.0 ± 4.4%; with human corpus cavernosum (dose 10 μM), 45.3 ± 4.5%. Besides, the “Potency relative to PGE1” value in the data set with human corpus cavernosum was 1.6 times.
`CCC1(C(O)C/C=C/C2C(O)CC(Cl)C2C/C=C\CCCC(=O)O)CCC1.NCCCC[C@H](N)C(=O)O` (stereo not drawn) [Compound A, (5Z, 9β, 11α, 13E)-17,17-propano-11,16-dihydroxy-9-chloro-20-norprosta-5,13-dienic acid·lysine salt] gave a Maximal tolerated dose in data set [1] of no less than 30 mg/kg weight. Further, the “Intensity of relaxation compared with PGE1” value in the data set on corpus cavernosum is listed as “at the same level as PGE1”. Also, the “Relaxation of corpus cavernosum, dose dependence” value in the data set with corpus cavernosum was “dose-dependent relaxasions”. The “Corpus cavernosum relaxation rate” value in the data set on corpus cavernosum (dose 0.1 μM) is given as 26.8 ± 4.2%; in the data set on corpus cavernosum (dose 1.0 μM), 35.2 ± 2.8%; in the data set on human corpus cavernosum (dose 1.0 μM), 29.9 ± 13.7%; in the data set on human corpus cavernosum (dose 10 μM), 44.5 ± 12.6%. For the same compound, the “Potency relative to PGE1” value with human corpus cavernosum was 1.6 times.
Turning to 19-hydroxy-PGE2 [reference compound], the “Corpus cavernosum relaxation rate” value in the data set with corpus cavernosum (dose 0.3 μM) was determined as 20.0 ± 4.2%; with corpus cavernosum (dose 1.0 μM), 27.2 ± 4.7%.
